21 compounds from PubChem BioAssay (NCI) can be followed below.

Several values for one entry are separate records, joined by “and”; a condition that tells them apart may be missing. Equal values may be shown once.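 A five-concentration, 48-hour dose response in 96-well plates underlies each endpoint, interpolated linearly between surrounding concentrations. GI50 is the concentration that inhibits growth by half. TGI is the concentration that stops growth completely.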

Holding throughout (experiment): NCI anticancer screen, dose series, 48 h
Assay [1] deals with MDA-N.
The subject of assay [2] is HT29 colon.
Assay [3] relates to M14 melanoma.
Assay [4] concerns RXF 393 renal.
Assay [5] concerns NCI/ADR-RES ovarian.
Assay [6] has as its system NCI-H460 lung.
Assay [7] has as its system LOX IMVI melanoma.
The test system of assay [8] is SK-MEL-28 melanoma.
Assay [9] has as its system RPMI-8226 leukemia.
Assay [10] deals with HCC-2998 colon.

On to `Nc1cccc(/C=C/C(=O)N2CCN(CCOC(c3ccccc3)c3ccccc3)CC2)c1`, for which the TGI turned out to be 35.9 µM in [1]; 21.6 µM in [2]; 26 µM in [3]; 28.7 µM in assay [4]; 37.3 µM in assay [5]; 30.6 µM in assay [6]. The TGI in assay [7] came to 32.2 µM; in assay [8] it was 28.9 µM; in assay [9], 26.7 µM.
In the case of `CCCCCCCCC/C=C/C=C/C(=O)NCC(=O)NC1C(O)C(O)C(Nc2ncnc3nc[nH]c23)OC1C(O)CO` (stereo unspecified), the TGI in assay [1] is 1.21 µM; in assay [2] it was 0.349 µM and 0.117 µM; in assay [3], 0.143 µM and 1.22 µM; in [4], 0.0163 µM; in [6] it was 1.23 µM and 0.321 µM; in assay [7] it was 0.0396 µM. In [8], the TGI amounted to 3.25 µM. Moreover, the GI50 in [2] was 0.103 nM; in [3] it was 24.8 nM; in assay [6] it was 2.78 nM; in [7], 7.35 nM.
`Cc1c(N2C(=O)CS(=O)(=O)C2c2cccc(Oc3ccccc3)c2)c(=O)n(-c2ccccc2)n1C` (stereo unspecified): the TGI was 62.6 µM in assay [1]; more than 100 µM in [2]; more than 100 µM in assay [3]; 79.3 µM in assay [4]; more than 100 µM in assay [5]; more than 100 µM in assay [6]. Moreover, the TGI in [7] is more than 100 µM; in assay [8], more than 100 µM; in assay [9] it was 74.4 µM.
As for `COc1nc(C#CC2(O)CCCCC2)nc(OC)n1`, the TGI in assay [1] came out at 26.3 µM; in assay [2], 45.4 µM; in [3], 38.3 µM; in assay [4], 27 µM; in [5], 68.9 µM; in assay [6], 78.6 µM. The TGI in assay [7] was found to be 11.7 µM; in [8], 30.2 µM; in assay [9], 10.5 µM.
For the compound `Nc1ccccc1S(=O)(=O)c1ccccc1`, the TGI in assay [2], in assay [3], in assay [10], in assay [4], in assay [6] and in [7] was more than 100 µM in each case. The TGI in assay [8] and in assay [9] was more than 100 µM each time.
As for `Nc1nc(SCCc2ccccc2)nc2nc3c(c(-c4ccccc4)c12)CCCC3`, the TGI in assay [1] was more than 100 µM; in [2], more than 100 µM; in assay [3] it was more than 100 µM; in assay [4], 81.1 µM; in assay [5], more than 100 µM; in assay [6], more than 100 µM. The TGI in assay [7], in [8] and in [9] was more than 100 µM throughout.
In the case of `COc1cc2c(ccc3c4cc(OC)c(OC)cc4c[n+](C)c23)cc1O`, the TGI in assay [2] is more than 75 µM; in assay [10], 75 µM; in [4], more than 75 µM; in [5] it was more than 75 µM; in assay [6], more than 75 µM; in assay [7], more than 75 µM. The TGI in [8] and in assay [9] was more than 75 µM in each case.
For the compound `CNC(=O)OCc1c(CO)nc(SC)n1C`, the TGI in [2], in [10], in assay [4], in assay [5], in [6] and in assay [7] was more than 100 µM in each case. The TGI in assay [8] and in assay [9] was more than 100 µM throughout.
Regarding `O=c1[nH]nc(NNc2ccccc2)c2nnn(C3CCCCC3)c12`, the TGI in assay [1], in assay [2], in assay [3], in assay [10], in assay [5] and in [6] was more than 100 µM each time. For the same compound, the TGI in assay [7], in [8] and in [9] was more than 100 µM each time.
Turning to `CC(C)(C)c1cc(C2=NNC(c3ccccc3)C2)cc(C(C)(C)C)c1O` (stereo unspecified), the TGI is 28.5 µM in [1]; 50.3 µM in assay [2]; 34.1 µM in [3]; 23.2 µM in assay [4]; 38.7 µM in [5]; 29.7 µM in assay [6]. The TGI in assay [7] amounted to 29.6 µM; in [8], 31.5 µM; in [9], 43.8 µM.
Regarding `Fc1ccc(C(OCCN2CCC3CCC(C2)N3C/C=C/c2ccco2)c2ccc(F)cc2)cc1` (stereo unspecified), the TGI is 25.9 µM in assay [1]; 18.8 µM in [3]; 18.4 µM in assay [10]; 15.7 µM in [4]; 22.4 µM in assay [5]; 24.5 µM in assay [6]. Besides, the TGI is 24.2 µM in assay [7], 19.5 µM in [8] and 17.3 µM in [9].
Take `O=c1cccccc1[O-].O=c1cccccc1[O-].[O]=[U+2]=[O]`: the TGI in assay [2] was more than 100 µM; in assay [3] it was 73.2 µM; in [4], 41.2 µM; in assay [6] it was more than 100 µM; in assay [7] it was 95 µM; in assay [8] it was 61 µM.
As for `CCOC(=O)C(NC(=O)c1ccco1)(Nc1nc2ccc(OCC)cc2s1)C(F)(F)F` (stereo unspecified), the TGI was 60 µM in [1]; more than 100 µM in [2]; more than 100 µM in [3]; more than 100 µM in [10]; 30.9 µM in [4]; more than 100 µM in assay [5]. Further, the TGI in assay [6] and in [8] was more than 100 µM each time.
In the case of `O=C(OCN1C(=O)C2C3C=CC(C2C1=O)C1C2C(=O)N(COC(=O)C4CCCN4)C(=O)C2C31)C1CCCN1` (stereo unspecified), the TGI in assay [2] was more than 100 µM; in assay [3], more than 100 µM; in assay [10] it was more than 100 µM; in assay [4], more than 100 µM; in assay [6], more than 56.5 µM; in assay [7], more than 64.5 µM. Also, the TGI in assay [8] is more than 100 µM; in assay [9], 54.1 µM.
With `CCn1c(-c2ccc(N=NNc3ccc(-c4n[nH]c(=S)n4CC)cc3)cc2)n[nH]c1=S`, the TGI in assay [1] is more than 100 µM; in assay [2], more than 100 µM; in assay [3], 8.2 µM; in assay [4], 11.8 µM; in [5], more than 100 µM; in assay [7], more than 100 µM. Also, the TGI in assay [8] is more than 100 µM; in [9], 5.64 µM.
As for `COc1ccc(C(=O)/C=C/c2cccc([N+](=O)[O-])c2)c(OC)c1`, the GI50 in [3] was 1620 nM; in [10] it was 2270 nM; in assay [4], 1130 nM; in [5], 1530 nM; in assay [6], 1270 nM; in assay [7], 895 nM. Also, the GI50 in assay [8] is 4.75 µM; in assay [9], 1090 nM. Also, the TGI in assay [3] was more than 50 µM; in assay [10], more than 50 µM; in [4] it was 2.36 µM; in [5], more than 50 µM; in assay [6], 3.31 µM; in assay [7] it was 1.94 µM. Besides, the TGI was more than 50 µM in assay [8] and 3.14 µM in [9].
Consider `[N-]=[N+]=CC(=O)c1ccccc1C#CCCc1ccccc1`, for which the TGI was 36.7 µM in [2]; more than 100 µM in assay [3]; more than 100 µM in [10]; more than 100 µM in [4]; more than 100 µM in assay [6]; more than 100 µM in [7]. Further, the TGI was more than 100 µM in assay [8] and 50.2 µM in assay [9].
Regarding `CCC(C)C1=C(OC(C)=O)[N+]2([O-])Oc3ccc(-c4c(OC(C)=O)c(OC(C)=O)c(-c5ccc(OC(C)=O)cc5)c(OC(C)=O)c4OC(C)=O)cc3OC2(C(C)CC)C(=O)N1OC(C)=O` (stereo unspecified), the TGI in assay [1], in [2], in [3], in [4], in assay [5] and in assay [6] was more than 50 µM throughout. Besides, the TGI worked out at 43.5 µM in assay [7], 44.7 µM in assay [8] and 22.8 µM in assay [9].
As for `O=C(c1cccs1)N(C(=S)OC12CC3CC(CC(C3)C1)C2)c1ccccc1`, the TGI in assay [1] is more than 100 µM; in assay [2], more than 100 µM; in [3], 43 µM; in [10], more than 100 µM; in assay [4], more than 100 µM; in assay [5] it was more than 100 µM. Moreover, the TGI in [6] was more than 100 µM; in [7], 92.9 µM; in assay [8] it was more than 100 µM.
In the case of `COc1cc2c(cc1O)CC[C@@H]1[C@@H]2CC[C@]2(C)[C@@H](OCCN(C)C)CC[C@@H]12`, the GI50 was 158 nM in assay [2]; 644 nM in [10]; 163 nM in assay [5]; 219 nM in assay [6]; 94.9 nM in [7]; 116 nM in [9]. Besides, the TGI was determined as 0.568 µM in [2]; 1.5 µM in [10]; 0.861 µM in assay [5]; 2.09 µM in [6]; 0.192 µM in assay [7]; 0.312 µM in [9].
Regarding `CC12CC3OC(=O)C1COC14OC5(C2C1=O)C(O)(CCC1C4CC(O)C2(O)CC=CC(=O)C12C)C(=O)OC35C` (stereo unspecified), the TGI in [1], in assay [2], in assay [3], in assay [10], in assay [5] and in assay [6] was more than 100 µM each time. Besides, the TGI in assay [7], in assay [8] and in [9] was more than 100 µM in each case.
